We go through 11 compounds from US20220273659A1, “HETEROCYCLIC COMPOUNDS AS KINASE INHIBITORS” (NUVATION BIO INC., priority 2019, published 2022).

The structures appear in SMILES notation. pIC50: −log10 of the molar value. Read-outs that look alike come from different tables or passages of the source.

One assay addresses T1, CDK4 (Homo sapiens, UniProt P11802).
T1 construct: purchased Invitrogen PR8064A
Nature of the assay: In vitro kinase inhibition IC50, luminescence (ADP Glo), retinoblastoma substrate. The format is biochemical. The settings on record: read-out: CDK4/D1 IC50. The essentials:
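Inhibition of CDK4 was quantified by ADP Glo luminescence with retinoblastoma as substrate. Reactions held 5 nM kinase, 1 μM retinoblastoma and 25 μM ATP and ran 2H at room temperature. A Synergy Neo reader took signals 15 min and 45 min after detection reagent, and percent inhibition was fitted to a four-parameter logistic model in XLfit to obtain IC50.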

The next assay has as its target T2, CDK6 (Homo sapiens, UniProt Q00534).
T2 construct: purchased Invitrogen PR8422B
The description is as above. The format is biochemical. The following applies: read-out: CDK6/D1 IC50. The essentials:
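IC50 derived by four-parameter logistic fit of percent inhibition, read as ADP-Glo luminescence. Reactions: 5 nM CDK6, 1 μM retinoblastoma, 25 μM ATP, test compound 0.1–200 nM final, 2 h at room temperature.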

In the next assay the target is T3, CDK1 (cyclin B) (Homo sapiens, UniProt P06493).
T3 construct: purchased Invitrogen Life Technologies (assay service)
T3 sequence (P06493 whole entry): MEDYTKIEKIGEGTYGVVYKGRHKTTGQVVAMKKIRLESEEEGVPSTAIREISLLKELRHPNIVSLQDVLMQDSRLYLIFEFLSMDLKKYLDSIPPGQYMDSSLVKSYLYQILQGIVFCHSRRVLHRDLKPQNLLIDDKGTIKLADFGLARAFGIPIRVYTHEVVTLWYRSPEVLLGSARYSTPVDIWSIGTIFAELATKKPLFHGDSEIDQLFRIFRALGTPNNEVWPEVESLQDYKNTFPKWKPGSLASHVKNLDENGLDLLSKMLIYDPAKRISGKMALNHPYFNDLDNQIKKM
T3 sequence (P14635 whole entry partner): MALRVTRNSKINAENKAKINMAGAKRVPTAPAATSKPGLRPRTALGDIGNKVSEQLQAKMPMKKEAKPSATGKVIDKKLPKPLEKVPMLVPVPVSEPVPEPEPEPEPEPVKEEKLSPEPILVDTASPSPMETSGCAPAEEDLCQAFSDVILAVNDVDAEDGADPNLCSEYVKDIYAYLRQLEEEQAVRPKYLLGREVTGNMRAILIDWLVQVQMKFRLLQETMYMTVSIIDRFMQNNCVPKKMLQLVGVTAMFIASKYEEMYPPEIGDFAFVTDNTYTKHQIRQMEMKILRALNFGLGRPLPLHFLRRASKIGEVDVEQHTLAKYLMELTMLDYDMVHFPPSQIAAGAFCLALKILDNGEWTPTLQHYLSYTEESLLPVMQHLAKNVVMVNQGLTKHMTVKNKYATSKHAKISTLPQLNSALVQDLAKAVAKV
Nature of the assay: Z'-LYTE kinase assay. The format is biochemical. As for the experimental part:
The plates were shaken for 30 seconds, and incubated for 60 minutes at room temperature. […] The plates were read on fluorescence plate reader with Dual emission at 445 nm and 520 nm.
The following equations were used for Z′-LYTE™ Screening Assay Data Analysis.

The target in the next assay is T4, CDK2 (cyclin A) (Homo sapiens, UniProt P24941).
T4 construct: purchased Invitrogen Life Technologies (assay service)
Nature of the assay: Z'-LYTE kinase assay. The format is biochemical. The method in brief:
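FRET-based Z′-LYTE read-out using 1.22–10.3 ng CDK2/cyclin A with Ser/Thr 12 peptide (2 μM in the 2× mix) and ATP (31 μM as the 4× solution), in HEPES pH 7.5, MgCl2, EGTA and BRIJ-35, for 60 min at room temperature. After 1 h of development, the 445/520 nm emission was read, and percent inhibition was fitted to a four-parameter logistic curve for IC50.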

The target of another assay is T5, FMS kinase (Homo sapiens, UniProt P07333).
T5 construct: purchased Invitrogen (Life Technologies)
T5 sequence (P07333 20-972): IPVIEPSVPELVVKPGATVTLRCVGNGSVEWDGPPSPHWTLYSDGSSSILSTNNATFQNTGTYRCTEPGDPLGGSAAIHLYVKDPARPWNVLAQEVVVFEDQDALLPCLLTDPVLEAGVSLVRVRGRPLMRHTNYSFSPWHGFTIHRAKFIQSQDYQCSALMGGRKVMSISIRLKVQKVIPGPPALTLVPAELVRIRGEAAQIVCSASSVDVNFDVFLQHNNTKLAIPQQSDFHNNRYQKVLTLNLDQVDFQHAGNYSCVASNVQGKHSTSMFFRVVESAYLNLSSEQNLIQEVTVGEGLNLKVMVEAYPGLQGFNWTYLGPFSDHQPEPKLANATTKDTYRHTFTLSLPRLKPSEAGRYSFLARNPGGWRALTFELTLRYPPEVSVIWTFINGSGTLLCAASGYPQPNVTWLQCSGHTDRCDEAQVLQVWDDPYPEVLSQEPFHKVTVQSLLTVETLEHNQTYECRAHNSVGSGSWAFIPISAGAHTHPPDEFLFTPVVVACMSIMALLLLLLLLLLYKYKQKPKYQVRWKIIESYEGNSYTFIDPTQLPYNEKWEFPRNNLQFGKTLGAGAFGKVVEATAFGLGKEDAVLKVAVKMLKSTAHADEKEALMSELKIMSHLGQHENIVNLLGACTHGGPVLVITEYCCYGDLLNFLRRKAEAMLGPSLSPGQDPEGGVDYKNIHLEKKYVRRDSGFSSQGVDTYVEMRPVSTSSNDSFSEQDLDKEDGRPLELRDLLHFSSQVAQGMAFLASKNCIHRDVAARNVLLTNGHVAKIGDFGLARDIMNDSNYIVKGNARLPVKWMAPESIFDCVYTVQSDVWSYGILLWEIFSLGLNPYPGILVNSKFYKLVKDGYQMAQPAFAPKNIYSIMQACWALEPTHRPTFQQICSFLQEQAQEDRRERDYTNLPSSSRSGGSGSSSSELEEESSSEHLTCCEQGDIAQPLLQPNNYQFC
The experiment in a line: LanthaScreen Eu Kinase Binding Assay (ATP, fluorescent-PolyGT substrate). The format is biochemical. The essentials: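 TR-FRET read (ex 340, em 495 and 520 nm) after EDTA/Tb-labelled antibody stop; IC50 by four-parameter logistic fit of percent inhibition. Reaction: 1.25 nM FMS, 10 min compound preincubation (3-fold series), then 1 h at room temperature with 10 μM ATP and 200 nM fluorescent PolyGT.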
In general terms: TR-FRET usually uses a lanthanide donor and a delayed reading to cut background.

The target in the next assay is T6, PI3Kδ kinase (Homo sapiens, UniProt O00329).
T6 construct: purchased Reaction Biology Corporation (assay service)
T6 sequence (O00329 whole entry): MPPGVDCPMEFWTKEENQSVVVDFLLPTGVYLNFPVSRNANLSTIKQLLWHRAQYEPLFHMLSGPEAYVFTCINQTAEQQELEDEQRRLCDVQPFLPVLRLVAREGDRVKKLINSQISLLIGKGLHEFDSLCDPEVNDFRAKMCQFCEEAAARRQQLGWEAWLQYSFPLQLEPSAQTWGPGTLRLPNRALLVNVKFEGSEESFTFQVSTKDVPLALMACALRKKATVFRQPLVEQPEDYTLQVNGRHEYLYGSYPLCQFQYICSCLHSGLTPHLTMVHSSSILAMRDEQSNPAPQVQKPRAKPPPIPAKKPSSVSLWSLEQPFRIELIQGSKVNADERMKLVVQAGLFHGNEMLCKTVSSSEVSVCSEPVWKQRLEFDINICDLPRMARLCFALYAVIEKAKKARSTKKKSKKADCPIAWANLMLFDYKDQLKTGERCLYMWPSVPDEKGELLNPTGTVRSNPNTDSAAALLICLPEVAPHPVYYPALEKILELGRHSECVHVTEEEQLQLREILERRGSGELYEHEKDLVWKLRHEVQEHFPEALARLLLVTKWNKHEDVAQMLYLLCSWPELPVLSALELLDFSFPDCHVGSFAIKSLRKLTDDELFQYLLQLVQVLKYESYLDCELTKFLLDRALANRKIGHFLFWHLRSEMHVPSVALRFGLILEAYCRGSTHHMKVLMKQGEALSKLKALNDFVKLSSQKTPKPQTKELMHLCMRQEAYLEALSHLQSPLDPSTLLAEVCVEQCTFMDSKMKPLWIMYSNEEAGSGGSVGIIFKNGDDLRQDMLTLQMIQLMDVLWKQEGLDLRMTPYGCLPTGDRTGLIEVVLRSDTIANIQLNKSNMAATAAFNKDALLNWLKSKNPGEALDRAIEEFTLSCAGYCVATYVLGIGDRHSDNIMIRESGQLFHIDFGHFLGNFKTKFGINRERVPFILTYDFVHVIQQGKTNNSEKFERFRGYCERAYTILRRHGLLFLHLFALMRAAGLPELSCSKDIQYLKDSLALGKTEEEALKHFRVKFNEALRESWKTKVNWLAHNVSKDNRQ
T6 sequence (P27986 whole entry partner): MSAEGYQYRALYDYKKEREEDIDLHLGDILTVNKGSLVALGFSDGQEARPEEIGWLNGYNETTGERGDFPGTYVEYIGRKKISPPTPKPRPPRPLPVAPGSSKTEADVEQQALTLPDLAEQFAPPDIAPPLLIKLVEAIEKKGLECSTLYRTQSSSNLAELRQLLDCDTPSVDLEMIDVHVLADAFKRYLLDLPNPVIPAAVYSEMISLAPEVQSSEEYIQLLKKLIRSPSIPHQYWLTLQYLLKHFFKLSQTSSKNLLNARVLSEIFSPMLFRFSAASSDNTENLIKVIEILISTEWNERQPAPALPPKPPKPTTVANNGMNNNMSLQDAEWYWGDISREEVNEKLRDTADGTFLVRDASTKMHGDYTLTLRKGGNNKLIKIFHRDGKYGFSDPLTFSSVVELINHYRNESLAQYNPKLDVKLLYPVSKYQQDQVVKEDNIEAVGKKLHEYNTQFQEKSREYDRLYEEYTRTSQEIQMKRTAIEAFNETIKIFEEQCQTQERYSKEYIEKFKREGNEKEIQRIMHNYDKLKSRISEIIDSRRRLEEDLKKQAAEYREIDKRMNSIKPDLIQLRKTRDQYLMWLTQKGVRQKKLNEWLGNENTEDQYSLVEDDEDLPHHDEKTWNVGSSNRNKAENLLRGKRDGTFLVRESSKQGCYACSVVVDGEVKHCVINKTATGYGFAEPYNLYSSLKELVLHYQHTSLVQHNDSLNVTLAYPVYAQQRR
The experiment in a line: PI3Kδ kinase assay (ADP-Glo, Reaction Biology). The format is biochemical. The essentials: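 Kinase in Tris-HCl 40 mM pH 7.5, MgCl2 20 mM, orthovanadate 3 mM, DTT 2 mM, 0.05% CHAPS, 1% DMSO, preincubated 10 min at room temperature with compound (about 0.5 nM–100 μM). ATP started a 30-min reaction at 30 °C. ADP-Glo luminescence converted to μM ADP via standard curve; IC50 from nonlinear regression.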
(In ADP-Glo the light output rises with the ADP produced.)

Assay [1] has as its system DU4475 breast carcinoma cells. The experiment in a line: Cancer cell proliferation assay, single agent (cell viability). The format is cell-based. The following applies: Homo sapiens, DU-4475; Table 4; Rb negative; treatment 144 Hr with medium change at 72 Hr; Cell Titer-Glo or resazurin. The essentials:
(§1)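 Viability read by resazurin or CellTiter-Glo after 24 h treatment (BT-549) or 144 h with a 72 h medium change (MCF-7, DU4475). Compounds tested at 7–9 concentrations, e.g. 1.1 nM–10 μM, added the day after seeding; IC50 by nonlinear sigmoidal regression.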
A general note: ATP-based viability assays read luminescence as a measure of living cells.

Assay [2] relates to MCF-7 breast adenocarcinoma cells. Described as above. The format is cell-based. The following applies: Homo sapiens, MCF7, Table 4; Rb positive; treatment 144 Hr with medium change at 72 Hr; Cell Titer-Glo or resazurin. The essentials: as §1

T2 sequence (Q00534 whole entry): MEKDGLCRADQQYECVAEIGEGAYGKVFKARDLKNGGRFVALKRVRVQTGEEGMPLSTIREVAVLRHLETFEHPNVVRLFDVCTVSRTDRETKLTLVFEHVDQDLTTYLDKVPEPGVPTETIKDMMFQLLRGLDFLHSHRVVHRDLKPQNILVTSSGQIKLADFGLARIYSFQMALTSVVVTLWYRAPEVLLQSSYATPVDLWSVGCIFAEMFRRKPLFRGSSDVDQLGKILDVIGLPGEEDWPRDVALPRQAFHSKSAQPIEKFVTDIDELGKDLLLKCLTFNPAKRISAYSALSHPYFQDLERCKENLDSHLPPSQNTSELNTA
T2 sequence (P24385 whole entry partner): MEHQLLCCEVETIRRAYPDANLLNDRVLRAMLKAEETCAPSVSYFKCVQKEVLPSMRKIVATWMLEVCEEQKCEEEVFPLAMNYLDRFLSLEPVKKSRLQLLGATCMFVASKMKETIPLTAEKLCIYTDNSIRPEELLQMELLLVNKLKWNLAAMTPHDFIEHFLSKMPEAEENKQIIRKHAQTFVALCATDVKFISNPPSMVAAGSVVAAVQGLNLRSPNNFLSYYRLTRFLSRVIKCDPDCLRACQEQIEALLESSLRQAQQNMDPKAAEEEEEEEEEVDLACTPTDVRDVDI
T1 sequence (P11802 whole entry): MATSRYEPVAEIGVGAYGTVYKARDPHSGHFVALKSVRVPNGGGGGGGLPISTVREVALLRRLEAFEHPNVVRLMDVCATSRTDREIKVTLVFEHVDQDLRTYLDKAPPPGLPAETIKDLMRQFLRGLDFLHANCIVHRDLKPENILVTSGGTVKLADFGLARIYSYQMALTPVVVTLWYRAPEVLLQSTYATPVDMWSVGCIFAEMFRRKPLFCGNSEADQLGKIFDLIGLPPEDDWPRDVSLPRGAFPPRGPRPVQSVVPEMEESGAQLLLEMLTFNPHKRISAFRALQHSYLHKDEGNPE
T1 sequence (P24385 whole entry partner): as the sequence (P24385 whole entry partner) above

Take `N#Cc1cc2cnc(NC3CCN(S(=O)(=O)CC(F)(F)F)CC3)nc2n(C2CCCC2)c1=O` [Compound No. 358, 8-cyclopentyl-7-oxo-2-((1-((2,2,2-trifluoroethyl)sulfonyl)piperidin-4-yl)amino)-7,8-dihydropyrido[2,3-d]pyrimidine-6-carbonitrile]: the pIC50 on CDK4 is 8.36; on CDK6, 8.18; against CDK1 (cyclin B) it was 5.86; on CDK2 (cyclin A) it was 6.92; at FMS kinase, 5.95; on PI3Kδ kinase, less than 4.36. The pIC50 is 4.89 in assay [1] and 5.55 in assay [2].

For `CS(=O)(=O)N1CCC(Nc2ncc3cc(C#N)c(=O)n(C4CCCCC4)c3n2)CC1` [Compound No. 367, 8-cyclohexyl-2-((1-(methylsulfonyl)piperidin-4-yl)amino)-7-oxo-7,8-dihydropyrido [2,3-d] pyrimidine-6-carbonitrile], the pIC50 at CDK4 is 7.26; at CDK6 it was 8.13; against CDK1 (cyclin B) it was 5.53; on CDK2 (cyclin A) it was 6.51; at FMS kinase it was 6.99; against PI3Kδ kinase it was 6.27. Also, the pIC50 in assay [1] was 5.29; in assay [2], 6.19.

With `CCOCCCn1c(=O)c(C#N)cc2cnc(Nc3ccc4c(c3)CCNC4)nc21` [Compound No. 343, 8-(3-ethoxypropyl)-7-oxo-2-((1,2,3,4-tetrahydroisoquinolin-6-yl)amino)-7,8-dihydropyrido[2,3-d]pyrimidine-6-carbonitrile], the pIC50 was less than 6.70 at CDK4; less than 6.70 at CDK6; less than 5.30 on CDK1 (cyclin B) (read-out: CDK1/B IC50); less than 5.51 against CDK2 (cyclin A); 8.19 on FMS kinase; 6.11 against PI3Kδ kinase. Moreover, the pIC50 in assay [1] was 5.24; in assay [2], 5.89.

In the case of `N#Cc1cc2cnc(Nc3ccc4c(c3)CCNC4)nc2n(C2COCC2O)c1=O` (stereo not shown) [Compound No. 101, 8-(4-hydroxytetrahydrofuran-3-yl)-7-oxo-2-((1,2,3,4-tetrahydroisoquinolin-6-yl)amino)-7,8-dihydropyrido[2,3-d]pyrimidine-6-carbonitrile], the pIC50 at CDK4 is less than 6.70; at CDK6 it was less than 6.70; at CDK1 (cyclin B) (read-out: CDK1/B IC50) it was less than 5.30; against CDK2 (cyclin A) it was 5.76; on FMS kinase, 7.26; on PI3Kδ kinase, 5.11. The pIC50 in assay [1] and in assay [2] was less than 4.52 each time.

For `CCS(=O)(=O)N1CCC(Nc2ncc3cc(C#N)c(=O)n(C4CCCC4)c3n2)CC1` [Compound No. 357, 8-cyclopentyl-2-((1-(ethylsulfonyl)piperidin-4-yl)amino)-7-oxo-7,8-dihydropyrido[2,3-d]pyrimidine-6-carbonitrile], the pIC50 at CDK4 is 8.57; at CDK6, 8.24; at CDK1 (cyclin B) it was 6.64; on CDK2 (cyclin A) it was 7.96; at FMS kinase it was 6.31; on PI3Kδ kinase, less than 4.60. In addition, the pIC50 in assay [1] was 5.88; in assay [2], 6.72.

On to `N#Cc1cc2cnc(Nc3ccc4c(c3)CCNC4)nc2n(C2CCCC2O)c1=O` (stereo not shown) [Compound No. 346, 8-(2-hydroxycyclopentyl)-7-oxo-2-((1,2,3,4-tetrahydroisoquinolin-6-yl)amino)-7,8-dihydropyrido[2,3-d]pyrimidine-6-carbonitrile], for which the pIC50 was less than 6.70 at CDK4; 7.24 at CDK6; less than 5.30 on CDK1 (cyclin B) (read-out: CDK1/B IC50); 6.75 at CDK2 (cyclin A); 7.74 at FMS kinase; 4.99 on PI3Kδ kinase. The pIC50 in assay [1] is 5.00; in assay [2], less than 4.52.

With `N#Cc1cc2cnc(NC3CCN(S(=O)(=O)C4CC4)CC3)nc2n(C2CCCC2)c1=O` [Compound No. 356, 8-cyclopentyl-2-((1-(cyclopropylsulfonyl)piperidin-4-yl)amino)-7-oxo-7,8-dihydropyrido[2,3-d]pyrimidine-6-carbonitrile], the pIC50 at CDK4 is 8.70; at CDK6, 8.35; on CDK1 (cyclin B) it was 7.26; at CDK2 (cyclin A), 8.26; on FMS kinase it was 7.26; on PI3Kδ kinase, 4.70. Besides, the figures for the pIC50 in assay [1] and in assay [2] were 5.94 and 6.76, respectively.

In the case of `CN(C)S(=O)(=O)N1CCC(Nc2ncc3cc(C#N)c(=O)n(C4CCCC4)c3n2)CC1` [Compound No. 366, 4-((6-cyano-8-cyclopentyl-7-oxo-7,8-dihydropyrido[2,3-d]pyrimidin-2-yl)amino)-N,N-dimethylpiperidine-1-sulfonamide], the pIC50 is 7.66 on CDK4; 8.35 on CDK6; 5.53 at CDK1 (cyclin B); 6.82 at CDK2 (cyclin A); 6.03 at FMS kinase; less than 4.32 against PI3Kδ kinase. For the same compound, the pIC50 in assay [1] was 5.62; in assay [2] it was 6.49.

Regarding `CS(=O)(=O)N1CCC[C@H](Nc2ncc3cc(C#N)c(=O)n(C4CCCC4)c3n2)C1` [Compound No. 364, (S)-8-cyclopentyl-2-((1-(methylsulfonyl)piperidin-3-yl)amino)-7-oxo-7,8-dihydropyrido[2,3-d]pyrimidine-6-carbonitrile], the pIC50 was less than 6.70 on CDK4; less than 6.70 on CDK6; less than 5.30 at CDK1 (cyclin B) (read-out: CDK1/B IC50); less than 5.30 against CDK2 (cyclin A); 7.19 at FMS kinase; 6.08 at PI3Kδ kinase. Further, the pIC50 was 5.25 in assay [1] and 5.48 in assay [2].

As for `CS(=O)(=O)N1CCC[C@@H](Nc2ncc3cc(C#N)c(=O)n(C4CCCC4)c3n2)C1` [Compound No. 365, (R)-8-cyclopentyl-2-((1-(methylsulfonyl)piperidin-3-yl)amino)-7-oxo-7,8-dihydropyrido[2,3-d]pyrimidine-6-carbonitrile], the pIC50 on CDK4 was 6.78; at CDK6 it was less than 6.70; at CDK1 (cyclin B) (read-out: CDK1/B IC50), less than 5.30; on CDK2 (cyclin A), 5.90; at FMS kinase, 6.51; on PI3Kδ kinase, 5.77. The pIC50 is 5.25 in assay [1] and 5.90 in assay [2].

In the case of `N#Cc1cc2cnc(Nc3ccc4c(c3)CCNC4)nc2n(C2CCC(F)(F)C2)c1=O` (stereo not shown) [Compound No. 344, 8-(3,3-difluorocyclopentyl)-7-oxo-2-((1,2,3,4-tetrahydroisoquinolin-6-yl)amino)-7,8-dihydropyrido[2,3-d]pyrimidine-6-carbonitrile], the pIC50 on CDK4 is 7.11; at CDK6, 7.19; at CDK1 (cyclin B) (read-out: CDK1/B IC50), less than 5.33; on CDK2 (cyclin A), 6.70; at FMS kinase, 8.46; on PI3Kδ kinase it was 5.79. The pIC50 in assay [1] is 6.02; in assay [2], 6.36.
